What was measured:
[1] = target: T1, human Adenosine A1 receptor (Homo sapiens, UniProt P30542); assay: GTPγS scintillation proximity assay, agonist testing; assay type: biochemical; conditions: agonist activity; membrane extracts of CHO-K1 cells expressing recombinant human A1; read-out: A1AR EC50
T1 construct: host or cells: CHO-K1
T1 sequence (P30542 1-326): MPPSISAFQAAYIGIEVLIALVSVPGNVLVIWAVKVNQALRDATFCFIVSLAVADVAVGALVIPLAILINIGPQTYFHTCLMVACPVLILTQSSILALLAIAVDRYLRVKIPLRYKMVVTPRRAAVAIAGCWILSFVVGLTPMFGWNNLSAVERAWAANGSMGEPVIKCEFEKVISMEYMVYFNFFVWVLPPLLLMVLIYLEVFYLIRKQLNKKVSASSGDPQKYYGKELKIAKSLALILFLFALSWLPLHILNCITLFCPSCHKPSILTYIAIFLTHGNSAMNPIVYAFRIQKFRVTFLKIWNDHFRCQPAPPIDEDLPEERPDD
Experimental: (§1) SPA ^35S-GTPγS experiments were conducted with Epics Therapeutics membrane preparations. cAMP HTRF assays were conducted with recombinant cell lines.
• Assay buffer: 20 mM HEPES pH 7.4; 100 mM NaCl, 10 μg/mL saponin, MgCl2 at optimized concentration for the specific receptor. • Membranes: membrane extracts prepared from CHO-K1 cells expressing recombinant human Adenosine A1 receptor, thawed on ice, diluted in assay buffer and kept on ice. • GDP: diluted in assay buffer at the optimized concentration for the specific receptor Beads: PVT-WGA (Perkin Elmer, RPNQ001), diluted in assay buffer at 50 mg/mL (0.5 mg/10 μL) • GTPγ^35S: (Perkin Elmer, NEG030X), diluted in assay buffer for a final 0.1 nM assay concentration
Protocol for agonist testing: membranes are mixed with GDP (volume:volume). In parallel, GTPγ[^35S] is mixed with the beads (volume:volume) just before starting the reaction. The following reagents are successively added in the wells of an Optiplate (Perkin Elmer): 50 μL of test or reference ligand, 25 μL of the membranes:GDP mix, and 25 μL of the GTPγ[^35S]:beads mix. The plates are covered with a top seal, mixed on an orbital shaker for 2 min, and then incubated for 1 hour at room temperature. Then the plates are centrifuged for 10 min at 2000 rpm, incubated at room temperature and counted for 30 sec/well with a PerkinElmer TopCount™ reader. • Conditions for the GTPγS scintillation proximity assay are shown in Table 14.

human A2B = target: T2, human A2B (Homo sapiens, UniProt P29275); assay: cAMP HTRF assay for Gs coupled receptor, agonist test; assay type: cell-based; conditions: agonist activity; HEK293 cells expressing recombinant human A2B; read-out: A2BAR EC50
T2 construct: expressed in transfected cells; host or cells: HEK293
T2 sequence (P29275 1-332): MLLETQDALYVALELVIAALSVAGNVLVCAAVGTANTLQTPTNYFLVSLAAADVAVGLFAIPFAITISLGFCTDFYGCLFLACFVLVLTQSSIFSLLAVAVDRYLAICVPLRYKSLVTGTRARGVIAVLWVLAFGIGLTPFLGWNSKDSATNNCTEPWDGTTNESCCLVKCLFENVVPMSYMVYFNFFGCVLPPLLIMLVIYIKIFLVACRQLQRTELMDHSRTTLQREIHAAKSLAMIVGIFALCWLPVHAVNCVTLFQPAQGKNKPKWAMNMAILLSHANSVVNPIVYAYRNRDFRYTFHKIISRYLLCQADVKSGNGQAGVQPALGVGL
Experimental: as §1
Dose response curves are performed in parallel with the reference compounds.
For agonist test (96 well): 12 μL of cells are mixed with 12 μL of the test compound at increasing concentrations and then incubated 30 min at room temperature. After addition of the lysis buffer containing cAMP-d2 and anti-cAMP cryptate detection reagents, plates are incubated 1 hour incubation at room temperature, and fluorescence ratios are measured according to the manufacturer specification, with the HTRF kit.

EC50 [1] [nM]	EC50 (human A2B) [nM]	Structure (SMILES)
61	28	COCCSc1nc(N)c(C#N)c(-c2ccc(OCCO)cc2)c1C#N [Compound 151]
92	> 10000	COCCOc1ccc(-c2c(C#N)c(N)nc(SCc3ccccc3)c2C#N)cc1 [Compound 152]
41	3.3	N#Cc1c(N)nc(OCc2cccnc2)c(C#N)c1-c1ccc(OCCO)cc1 [Compound 159]
130	56	CN(Cc1cccnc1)c1nc(N)c(C#N)c(-c2ccc(OCCO)cc2)c1C#N [Compound 160]
368	159	N#Cc1c(N)nc(NCc2cccnc2)c(C#N)c1-c1ccc(OCCO)cc1 [Compound 161]
11	0.7	N#Cc1c(N)nc(SCc2ccnnc2)c(C#N)c1-c1ccc(OCCO)cc1 [Compound 162]
12	3.9	N#Cc1c(N)nc(SCc2cnccn2)c(C#N)c1-c1ccc(OCCO)cc1 [Compound 172]
8.1	0.5	N#Cc1c(N)nc(SCc2ccncc2)c(C#N)c1-c1ccc(OCCO)cc1 [Compound 174]
20	0.9	N#Cc1c(N)nc(SCc2cncnc2)c(C#N)c1-c1ccc(OCCO)cc1 [Compound 175]
34	7.1	N#Cc1c(N)nc(SCc2ncccn2)c(C#N)c1-c1ccc(OCCO)cc1 [Compound 176]
57	18	N#Cc1c(N)nc(SCCO)c(C#N)c1-c1ccc(OCCO)cc1 [Compound 177]
1.5	0.06	N#Cc1c(N)nc(SCc2cccnn2)c(C#N)c1-c1ccc(OCCO)cc1 [Compound 178]
2	0.1	N#Cc1c(N)nc(SCc2cccnc2)c(C#N)c1-c1ccc(OCCO)cc1 [Compound 183]
567	> 10000	COCCOc1ccc(-c2c(C#N)c(N)nc(CCc3cccnc3)c2C#N)cc1 [Compound 191]
25	> 10000	COCCOc1ccc(-c2c(C#N)c(N)nc(SCCO)c2C#N)cc1 [Compound 192]
49	> 10000	COCCOc1ccc(-c2c(C#N)c(N)nc(OCc3cccnc3)c2C#N)cc1 [Compound 193]
71	> 10000	COCCOc1ccc(-c2c(C#N)c(N)nc(SCc3ccnnc3)c2C#N)cc1 [Compound 194]
9.7	> 10000	COCCOc1ccc(-c2c(C#N)c(N)nc(SCc3cccnn3)c2C#N)cc1 [Compound 195]
52	> 10000	COCCOc1ccc(-c2c(C#N)c(N)nc(SCc3ccncc3)c2C#N)cc1 [Compound 197]
80	> 10000	COCCOc1ccc(-c2c(C#N)c(N)nc(SCc3cncnc3)c2C#N)cc1 [Compound 198]
981	495	N#Cc1c(N)nc(SCc2c[nH]c3ccccc23)c(C#N)c1-c1ccc(OCCO)cc1 [Compound 206]
739	108	N#Cc1c(N)nc(SCc2n[nH]c3ccccc23)c(C#N)c1-c1ccc(OCCO)cc1 [Compound 207]
500	98	N#Cc1c(N)nc(SCc2nc3cc(Cl)ccc3s2)c(C#N)c1-c1ccc(OCCO)cc1 [Compound 208]
7600	> 10000	COCCOc1ccc(-c2c(C#N)c(N)nc(SCc3cccc4c3CCO4)c2C#N)cc1 [Compound 212]
> 10000	> 10000	COCCOc1ccc(-c2c(C#N)c(N)nc(SCc3ccc4ccoc4c3)c2C#N)cc1 [Compound 213]
> 10000	> 10000	COCCOc1ccc(-c2c(C#N)c(N)nc(SCc3cccc4[nH]ncc34)c2C#N)cc1 [Compound 214]

EC50 [1] [nM]	EC50 (human A2B) [nM]	Structure (SMILES)
> 10000	> 10000	COCCOc1ccc(-c2c(C#N)c(N)nc(SCc3cccc4[nH]cnc34)c2C#N)cc1 [Compound 215]
> 10000	> 10000	COCCOc1ccc(-c2c(C#N)c(N)nc(SCc3cncc4[nH]ccc34)c2C#N)cc1 [Compound 216]
> 10000	> 10000	COCCOc1ccc(-c2c(C#N)c(N)nc(SCc3nccc4[nH]ccc34)c2C#N)cc1 [Compound 217]
353	> 10000	N#Cc1c(N)nc(SCC2CCOC2)c(C#N)c1-c1ccc(OC2CCOC2)cc1 (centres unmarked) [Compound 218]
154	> 10000	N#Cc1c(N)nc(SCC2COC2)c(C#N)c1-c1ccc(OC2CCOC2)cc1 (centres unmarked) [Compound 219]
> 10000	> 10000	N#Cc1c(N)nc(SCCC(F)(F)F)c(C#N)c1-c1ccc(OC2CCOC2)cc1 (centres unmarked) [Compound 220]
> 10000	> 10000	N#Cc1c(N)nc(SCc2cccc3[nH]ccc23)c(C#N)c1-c1ccc(OC2CCOC2)cc1 (centres unmarked) [Compound 221]
32	> 10000	CN(C)c1nc(SCC2COC2)c(C#N)c(-c2ccc(OC3COC3)cc2)c1C#N [Compound 222]
1.5	401	N#Cc1c(N)nc(SCC2COC2)c(C#N)c1-c1ccc(OCCO)cc1 [Compound 223]
0.75	118	N#Cc1c(N)nc(SC[C@H]2CCOC2)c(C#N)c1-c1ccc(OC2COC2)cc1 [Compound 225]
22	> 10000	CC1(CSc2nc(N)c(C#N)c(-c3ccc(OC4COC4)cc3)c2C#N)COC1 [Compound 226]
326	> 10000	N#Cc1c(N)nc(SCC2(F)COC2)c(C#N)c1-c1ccc(OC2COC2)cc1 [Compound 227]
1460	7550	N#Cc1c(N)nc(SC[C@@H]2CCOC2)c(C#N)c1-c1ccc(OC2COC2)cc1 [Compound 228]
> 10000	11	N#Cc1c(N)nc(SCc2nccc3[nH]ccc23)c(C#N)c1-c1ccc(OCCO)cc1 [Compound 229]
5.2	> 10000	CNc1nc(SCC2COC2)c(C#N)c(-c2ccc(OC3COC3)cc2)c1C#N [Compound 230]
1.51	> 10000	COCCOc1ccc(-c2c(C#N)c(N)nc(SCc3ccncn3)c2C#N)cc1 [Compound 232]
> 10000	> 10000	COCCOc1ccc(-c2c(C#N)c(SCc3cccnn3)nc(C3CC3)c2C#N)cc1 [Compound 233]
1.22	2.02	N#Cc1c(N)nc(SCc2cccnn2)c(C#N)c1-c1ccc(OC2COC2)cc1 [Compound 234]
3280	1970	N#Cc1c(N)nc(SCc2cnccn2)c(C#N)c1-c1ccc(OCCOC(F)F)cc1 [Compound 235]
164	49.3	N#Cc1c(N)nc(SCc2cccnc2)c(C#N)c1-c1ccc(O[C@@H]2CCOC2)cc1 [Compound 236]
1.62	5360	N#Cc1c(N)nc(SCc2cccnn2)c(C#N)c1-c1ccc(OCCOC(F)F)cc1 [Compound 237]
> 10000	> 10000	COCCOc1ccc(-c2c(C#N)c(SCc3cccnn3)nc(N3CC(F)C3)c2C#N)cc1 [Compound 238]
840	> 10000	N#Cc1c(SCc2cccnn2)nc(C2CC2)c(C#N)c1-c1ccc(OCCOC(F)F)cc1 [Compound 239]
0.903	0.335	N#Cc1c(N)nc(SCc2cccnc2)c(C#N)c1-c1ccc(O[C@H]2CCOC2)cc1 [Compound 240]
73.2	> 10000	N#Cc1c(SCc2cccnn2)nc(N2CC(F)C2)c(C#N)c1-c1ccc(OCCOC(F)F)cc1 [Compound 241]
905	749	N#Cc1c(SCc2cccnn2)nc(C2CC2)c(C#N)c1-c1ccc(OCCOC2COC2)cc1 [Compound 242]

Source: patent publication US20250170112A1, “ADENOSINE LIGANDS FOR THE TREATMENT OF NEUROLOGICAL DISORDERS” (Lucy Therapeutics, Inc., priority 2022, published 2025)
